Here are results for 16 compounds from patent publication US11390625B2, “Aryl-phosphorus-oxygen compound as EGFR kinase inhibitor” (Chia Tai Tianqing Pharmaceutical Group Co., Ltd., priority 2017, dated 2022).

As usually defined, the AUC(0-t) is the area under the concentration-time curve up to a stated or last time point. A higher AUC(0-t) goes with high exposure. A word on the half-life: it is how long it takes for the measured level to halve. A low value points to rapid decline.

Series [1] can be described thus: Plasma, tumor and lung exposure in mice of the Ba/F3 CDX efficacy experiment. The conditions noted are these: mouse, 15.0 mg/kg/day oral. It counts as in vivo. Here is the method:
On Day 14 after administration to the groups for the efficacy experiment, the plasma was collected from the mice by submandibular blood collection before last administration and 2 hours after last administration, and the plasma samples were collected from the mice at 1 h, 4 h, 8 h and 24 h after administration. About 100 ul of blood was collected each time, placed in an anticoagulation tube, and centrifuged at 8000 rpm for 7 min, to collect plasma, which was stored at −80° C.

Series [2] relates to PC9 (EGFR-C797S/T790M/del19). The settings on record: combination with panitumumab or cetuximab; Nature Communications 8:14768, 2017; cited from earlier work.
Series [3] addresses EGFR (Δ19del/T790M/C797S) (Homo sapiens, UniProt P00533, C797S/T790M, form not given). Briefly: Enzyme activity experiment (1): EGFR (Δ19del/T790M/C797S) enzyme inhibition. It counts as biochemical. The conditions noted are these: read-out: EGFR (Δ19del/T790M/C797S) IC50. How it is done: 1) 10 μL of the compounds to be tested and reference compounds diluted to 10 mM were taken into an Echo LDV plate, which were diluted according to the compound profile with Echo.
1) 1×enzyme reaction buffer was prepared: 1× enzyme buffer, 5 mM MgCl2, 1 mM DTT (dithiothreitol), water.
2) A mixed solution of 10 nM enzyme (final concentration of 5 nM) and 2 μM substrate (final concentration of 1 μM) and a solution containing the substrate alone were prepared with the diluted enzyme reaction buffer.
3) 5 μL of the substrate was added into A1-H1, J24-P24 (the number of the well position), and 5 μL of the mixture of the enzyme and substrate was added into the remaining wells.
4) Centrifugation was performed at 1000 rpm at 23° C. for 30 s.
5) Incubation was performed at 23° C. for 15 min.
7) Centrifugation was performed at 1000 rpm at 23° C. for 30 s.
8) Incubation was performed at 23° C. for 60 min.
9) 10 μL of 250 nM TK Antibody-Crypate (a final concentration of 125 nM) and 1×D2 (a final concentration ½ time) prepared with Detection buffer were added.
10) Centrifugation was performed at 1000 rpm at 23° C. for 30 s.
11) Incubation was performed at 23° C. for 60 min.
12) The data was read with Envision, and the ratio was calculated to obtain the IC50 of the compound for inhibiting the enzyme activity.

Series [4] concerns A431 cells (EGFR WT). Briefly: Cell antiproliferation experiment (1), A431 cells, CellTiter Glo. It counts as cell-based. The settings on record: Homo sapiens, A-431, 72 h, read-out: anti-proliferation effect on cells A431 EGFR WT IC50. How it is done:
1) Cell Culture and Passage
(1) A431 medium: 88% DMEM+10% fetal bovine serum+1% L-glutamine+1% double-antibody
(2) A431 cells were isolated and passaged every 3-4 days, wherein the number of the cells for 3-day passage was 5e6 cells per T75 culture flask, and the number of the cells for 4-day passage was 3e6 cells per T75 culture flask.
2) Day 1: Preparation of Cell Plate
(1) Phosphate buffer, trypsin, and a culture medium were placed in a water bath at 37° C. to preheat.
(2) The original medium was removed from the cell culture flask and washed once with 6 mL of PBS.
(3) 5 mL of phosphate buffer was pipetted into the culture flask to rinse the cells (passage 17), and then the liquid was discarded.
(4) The cell culture flask was added with 3.5 mL of trypsin, and shaken gently, trypsin was removed after fully contact with the cells, and then the culture flask was placed in an incubator containing 5% CO2 at 37° C. for about 1 minute;
(5) The cells were resuspended in 10 mL cell culture medium, and about 0.6 mL of cell suspension was take out for counting (ViCell XR);
(6) The cell suspension was diluted with the medium to the cell density of 5e4 cells per ml, which was required for plating (cell concentration: 2500 cells per well);
(7) 100 μL of phosphate buffer solution was added to each well around the cell plate, while 50 μL of the cell suspension was added to other wells, and the plate was incubated overnight in a incubator containing 5% CO2 at 37° C.
(1) 9 μL of the compound (concentration: 1 mM) was added into a shallow well plate for Echo.
(2) The shallow well plate was centrifuged at 1000 rpm for 10 s and the cell plate was removed from the incubator.
(3) According to the layout of the microplate, the compounds was diluted with a three-fold concentration gradient using Echo, each compound was diluted to 10 concentration gradients and 250 nL of the diluted compounds was respectively added to the cell plate, and then the cell plate was returned to the incubator and further incubated for 3 days.
4) Day 5: Adding CTG and Reading the Plate
(1) After incubation for 72 h, 25 μL of CellTiter Glo was added to each well of the cell plate, followed by shaking the plate for 10 min in the dark.
(2) The plate was read on Envision.
Data analysis: By computer fitting, the corresponding concentration of the compound at 50% inhibition rate was read as the IC50 of the compound for inhibiting cell activity.
(In general: In ATP-based viability assays light output follows the ATP content of the culture.)

The test system of series [5] is Ba/F3 (EGFR Δ19del/T790M/C797S) cells. Briefly: Anti-proliferation experiment on cells (2), Ba/F3 (EGFR Δ19del/T790M/C797S). It counts as cell-based. The conditions noted are these: Ba/F3 EGFR, 72 h; Ba/F3 cells, 3 days; read-out: anti-proliferation effect on cells Ba/F3(Δ19del/T790M/C797S) IC50. Here is the method: The compounds ware transferred to a 384-well plate, with 125 nL of compound per well. […] After 3 days, 25 μL of detection reagent was added. The plate was incubated at room temperature for 10 minutes and then read with Envision.

The test system of series [6] is pEGFR Ba/F3 (EGFR Δ19del/T790M/C797S) cells. In words: Cell phosphorylation inhibition experiment, pEGFR Ba/F3 (EGFR Δ19del/T790M/C797S). It counts as cell-based. The conditions noted are these: Ba/F3 EGFR; Ba/F3 cells, EGF stimulated; read-out: Effect on cellular EGFR phosphorylation Ba/F3(Δ19del/T790M/C797S) IC50. Here is the method: The test compounds and reference compounds were diluted with 100% DMSO to 10 mM or 1 mM, and then a gradient dilution was performed by using Echo, 150 nL per well, with a three-fold concentration gradient and a ten-point dose response curve. The final concentration of the compounds was 100 μM or 10 μM. The suspension cells was centrifuged at 1000 rp for 5 minutes, suspend in Hanks' balanced salt solution, and added to a 384-well plate containing the compounds at 10 L/120K/well (the cell density of 1.2×10^7), followed by centrifugation at 1200 rpm for 30 s and incubation at 37° C. for 30 min. 5 μL of EGF (which has been diluted with 0.1% BSA Hanks' balanced salt solution) was added to each well, in which the final concentration of EGF was 1 μM. The plate was centrifuged at 1200 rpm for 30 s and incubated at 37° C. for 20 min. 5 μL of 4× lysis buffer containing blocking solution was added to each well, and then the plate was centrifuged at 1200 rpm for 30 s, and incubated at 37° C. for 30 min.

Series [7] concerns L858R/T790M/C797S mutations model. The conditions noted are these: combined with EGFR monoclonal antibody such as cetuximab; Nature 534, 129-132, 2016; cited from earlier work.

Chain of EGFR (Δ19del/T790M/C797S) (P00533 25-1210 T790M/C797S limits assumed, form open): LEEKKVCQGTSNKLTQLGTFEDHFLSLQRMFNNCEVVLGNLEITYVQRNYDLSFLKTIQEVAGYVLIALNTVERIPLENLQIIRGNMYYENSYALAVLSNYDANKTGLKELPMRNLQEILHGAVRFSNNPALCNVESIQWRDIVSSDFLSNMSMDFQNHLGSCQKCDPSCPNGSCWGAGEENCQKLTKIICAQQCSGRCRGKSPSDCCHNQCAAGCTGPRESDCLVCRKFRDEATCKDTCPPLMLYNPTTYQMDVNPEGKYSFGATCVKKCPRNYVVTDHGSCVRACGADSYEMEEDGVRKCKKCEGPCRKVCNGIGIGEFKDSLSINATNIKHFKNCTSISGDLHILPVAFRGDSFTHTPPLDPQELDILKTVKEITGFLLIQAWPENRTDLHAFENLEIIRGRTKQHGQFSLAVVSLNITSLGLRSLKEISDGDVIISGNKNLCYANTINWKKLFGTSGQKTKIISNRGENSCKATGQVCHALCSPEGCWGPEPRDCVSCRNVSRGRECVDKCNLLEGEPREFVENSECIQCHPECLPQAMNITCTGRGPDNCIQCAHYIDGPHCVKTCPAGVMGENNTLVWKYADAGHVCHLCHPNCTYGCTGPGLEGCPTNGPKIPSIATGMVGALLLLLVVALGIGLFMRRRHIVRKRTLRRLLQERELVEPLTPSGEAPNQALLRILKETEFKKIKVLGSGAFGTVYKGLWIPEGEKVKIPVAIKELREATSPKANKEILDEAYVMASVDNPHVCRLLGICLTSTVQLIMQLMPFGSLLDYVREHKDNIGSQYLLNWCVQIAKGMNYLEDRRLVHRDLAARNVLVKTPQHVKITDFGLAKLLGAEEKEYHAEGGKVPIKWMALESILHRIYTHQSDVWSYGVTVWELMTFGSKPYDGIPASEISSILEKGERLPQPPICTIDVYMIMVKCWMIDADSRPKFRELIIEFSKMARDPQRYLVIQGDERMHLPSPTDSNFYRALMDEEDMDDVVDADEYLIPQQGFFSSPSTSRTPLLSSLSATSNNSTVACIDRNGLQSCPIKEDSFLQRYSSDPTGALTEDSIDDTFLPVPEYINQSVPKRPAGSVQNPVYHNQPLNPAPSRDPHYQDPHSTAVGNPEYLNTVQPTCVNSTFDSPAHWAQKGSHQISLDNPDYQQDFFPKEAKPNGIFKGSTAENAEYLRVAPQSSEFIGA

In series [1] (BALB/c nude, plasma), `COc1cc(N2CCC(N3CCN(C)CC3)CC2)ccc1Nc1ncc(Cl)c(Nc2ccccc2P(C)(C)=O)n1` [Brigatinib, reference compound] showed an AUC(0-t) of 32.8 µM·h and a half-life of 5.57 h. This compound also had a concentration at 2 h in series [1] (BALB/c nude, plasma, 2 h after administration) of 5.18 µM. In series [1] (2 h after administration), the “Lung, 2 h” value was 10217 nmol/kg and the “Tumor, 2 h” value worked out at 5807 nmol/kg. Besides, in series [2], the antitumor efficacy entry is on record as “good antitumor efficacy”.

`COc1cc(N2CCC3(CC2)CN(C)C3)c(C)cc1Nc1ncc(Cl)c(Nc2ccc3sccc3c2P(C)(C)=O)n1` [Compound 2]: the IC50 in series [3] turned out to be 0.613 nM; in series [4] it was 811 nM; in series [5], 178 nM; in series [6], 68 nM.

For the compound `COc1cc(N2CCC(N3CCN(C)CC3)CC2)ccc1Nc1ncc(Cl)c(Nc2ccc3sccc3c2P(C)(C)=O)n1` [Compound 3], the IC50 was 3240 nM in series [4], 638 nM in series [5] and 187 nM in series [6].

With `COc1cc(N2CCC3(CCN(C)CC3)CC2)c(Cl)cc1Nc1ncc(Cl)c(Nc2ccc3ccccc3c2P(C)(C)=O)n1` [Compound 4], the IC50 in series [4] stood at 3750 nM; in series [5], 556 nM; in series [6], 278 nM.

As to `COc1cc(N2CCC3(CC2)CN(C)C3)ccc1Nc1ncc(Cl)c(Nc2ccc3ccccc3c2P(C)(C)=O)n1` [Compound 5], the IC50 was 1.63 nM in series [3], 890 nM in series [4], 313 nM in series [5] and 96 nM in series [6].

As to `COc1cc(N2CCC(N3CCN(C)CC3)CC2)ccc1Nc1ncc(Cl)c(Nc2ccc3ccccc3c2P(C)(C)=O)n1` [Compound 6], the IC50 in series [3] stood at 2.54 nM; in series [4], 997 nM; in series [5], 361 nM; in series [6] it was 187 nM.

As for `COc1cc(N2CCC3(CC2)CN(C)C3)c(C)cc1Nc1ncc(Cl)c(Nc2ccc3ccccc3c2P(C)(C)=O)n1` [Compound 9], the IC50 in series [3] was determined as 0.485 nM; in series [4], 282 nM; in series [5], 149 nM; in series [6] it was 149 nM.

Take `COc1cc(N2CCC3(CC2)CN(C)C3)c(C)cc1Nc1ncc(Cl)c(Nc2ccc3cccnc3c2P(C)(C)=O)n1` [Compound 12]: the IC50 was determined as 1260 nM in series [4], 239 nM in series [5] and 203 nM in series [6].

As for `COc1cc(N2CCC3(CC2)CN(C)C3)c(C)cc1Nc1ncc(Cl)c(Nc2ccc3cnn(C)c3c2P(C)(C)=O)n1` [Compound 13], the IC50 in series [3] was 5.79 nM; in series [4], above 10000 nM; in series [5] it was 3620 nM; in series [6], 1720 nM.

For the compound `COc1cc(N2CCC3(CC2)CN(C)C3)c(C)cc1Nc1ncc(Br)c(Nc2ccc3nccnc3c2P(C)(C)=O)n1` [Compound 36], the results for the IC50 in series [4], in series [5] and in series [6] were 168 nM, 45 nM and 25 nM, respectively.

`COc1cc(N2CCC3(CC2)CN(CCN(C)C)C3)c(C)cc1Nc1cc(Nc2ccc3nccnc3c2P(C)(C)=O)c(Br)cn1` [Compound 37]: the figures for the IC50 in series [4], in series [5] and in series [6] were 357 nM, 56 nM and 94 nM, respectively.

As to `CCc1cc(Nc2ncc(Br)c(Nc3ccc4nccnc4c3P(C)(C)=O)n2)c(OC)cc1N1CCC2(CC1)CN(C)C2` [Compound 40], the IC50 in series [4] was 561 nM; in series [5] it was 31 nM; in series [6] it was 24 nM.

In the case of `O=C(Nc1nccs1)C(c1cc(F)ccc1O)N1Cc2ccccc2C1=O` (stereo not drawn) [EAI045], the tumor inhibition effect entry in series [7] is listed as “better tumor inhibition effect”.

Take `COc1cc(N2CCC(N3CCN(C)CC3)CC2)ccc1Nc1ncc(Cl)c(Nc2ccc3nccnc3c2P(C)(C)=O)n1` [Example 59]: the figures for the IC50 in series [4], in series [5] and in series [6] were 534 nM, 54.3 nM and 534 nM, respectively.

As for `COc1cc(N2CCC(N3CCN(C)CC3)CC2)ccc1Nc1ncc(Br)c(Nc2ccc3nccnc3c2P(C)(C)=O)n1` [Example 60], the IC50 in series [4] was found to be 271 nM; in series [5] it was 47.6 nM; in series [6] it was 271 nM.

For `COc1cc(N2CCC(N3CCN(C)CC3)CC2)c(C)cc1Nc1ncc(Cl)c(Nc2ccc3nccnc3c2P(C)(C)=O)n1` [Example 61], the IC50 in series [4] was determined as 58 nM; in series [5], 32.2 nM; in series [6], 58 nM.
